Legend:
HMG-CoA reductase = target: T1, HMG-CoA reductase (Sus scrofa, UniProt Q1W675); assay: Hepatic HMG-CoA reductase activity in hypercholesterolemic swine; format: in vivo; settings: control diet + 50 ppm
T1 construct: The hepatic enzymatic activity of the HMG-CoA reductase decreased approximately 30%; from tissue; host or cells: pig liver, microsomes
T1 sequence (Q1W675 1-885): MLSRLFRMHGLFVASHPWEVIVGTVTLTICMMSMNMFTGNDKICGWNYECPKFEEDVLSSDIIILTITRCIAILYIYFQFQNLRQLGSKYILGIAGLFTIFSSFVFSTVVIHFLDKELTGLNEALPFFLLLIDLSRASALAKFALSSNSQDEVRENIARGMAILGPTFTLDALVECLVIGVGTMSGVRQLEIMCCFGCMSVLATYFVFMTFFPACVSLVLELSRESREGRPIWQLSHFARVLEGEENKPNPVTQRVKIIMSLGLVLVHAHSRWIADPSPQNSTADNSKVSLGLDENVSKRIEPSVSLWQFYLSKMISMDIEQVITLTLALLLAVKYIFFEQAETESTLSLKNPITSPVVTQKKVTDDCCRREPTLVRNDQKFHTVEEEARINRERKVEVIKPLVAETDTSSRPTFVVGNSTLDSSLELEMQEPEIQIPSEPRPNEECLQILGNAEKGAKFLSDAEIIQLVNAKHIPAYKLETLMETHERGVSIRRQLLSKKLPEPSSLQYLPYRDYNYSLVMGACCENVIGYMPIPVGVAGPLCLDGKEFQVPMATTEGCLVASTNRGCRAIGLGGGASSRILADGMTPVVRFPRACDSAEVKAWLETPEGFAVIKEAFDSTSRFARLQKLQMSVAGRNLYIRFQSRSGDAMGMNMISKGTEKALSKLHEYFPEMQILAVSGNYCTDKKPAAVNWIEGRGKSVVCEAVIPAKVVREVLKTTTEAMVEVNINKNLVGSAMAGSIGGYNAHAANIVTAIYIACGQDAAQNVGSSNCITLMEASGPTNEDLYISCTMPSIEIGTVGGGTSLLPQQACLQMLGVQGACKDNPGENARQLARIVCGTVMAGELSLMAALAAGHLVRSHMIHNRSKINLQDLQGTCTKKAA
Excerpt: All assays conducted on chicken or swine serum were done following the protocols described in A. A. Qureshi et al., "Lowering Of Serum Cholesterol In Hypercholesterolemic Humans By Tocotrienols" (Palmvitee), Am. J. Clin. Nutr., 53, pp. 1021S-26S (1991). All enzymatic assays were done following the protocols described in A. A. Qureshi et al., "Effects of Cereals and Culture Filtrate of Trichoderma viride on Lipid Metabolism of Swine", Lipids, 17, pp. 924 (1982). Plasma insulin, glucagon and TNF levels were measured using radioinnumoassay kits from Ventrex Laboratories, Inc. (Portland, Me.), ICN Biomedicals, Inc. (Costa Mesa, Calif.) and Genzyme Corp. (Cambridge, Mass.), respectively.
We next measured the effects of various tocotrienols from rice bran on HMG-CoA reductase and cholesterol 7α-hydroxylase in hypercholesterolemic swine. Since pigs are very similar to humans in their cholesterol metabolism, they provide a useful model from which to study hypercholesterolemia and related diseases. […] The serum cholesterol concentration in these swine is typically above 300-500 mg/dl, as compared to 120-160 mg/dl in normal adult swine. As a result, the pigs develop complicated atherosclerotic plaques that closely resemble advanced atherosclerotic lesions found in humans.
(§1) Each group of three 5-month old swine was administered either a control diet or a control diet supplemented with 50 ppm of TRF or 50 ppm of an individual tocotrienol. The samples were prepared as described in Example 11. After a 12 hour fast, serum and plasma samples were taken a 0 hrs, 21 days and 42 days from the start of the feeding period. After taking serum and plasma samples from the pigs at the end of the 42 day period, all of the swine were fasted for a total of 40 hours, followed by a 48 hour refeeding period. One swine from each group was sacrificed at that time and the liver, intestine, lung, heart, loin muscle, adipose tissue and ham muscle were removed.

[1] = tested on: hypercholesterolemic swine; assay: Serum cholesterol, apolipoproteins, triglycerides, glucose, insulin and glucagon in hypercholesterolemic swine; format: in vivo
Procedure: All assays conducted on chicken or swine serum were done following the protocols described in A. A. Qureshi et al., "Lowering Of Serum Cholesterol In Hypercholesterolemic Humans By Tocotrienols" (Palmvitee), Am. […] Plasma insulin, glucagon and TNF levels were measured using radioinnumoassay kits from Ventrex Laboratories, Inc. (Portland, Me.), ICN Biomedicals, Inc. (Costa Mesa, Calif.) and Genzyme Corp. (Cambridge, Mass.), respectively.
We next measured the effects of various tocotrienols from rice bran on HMG-CoA reductase and cholesterol 7α-hydroxylase in hypercholesterolemic swine. Since pigs are very similar to humans in their cholesterol metabolism, they provide a useful model from which to study hypercholesterolemia and related diseases. […] As a result, the pigs develop complicated atherosclerotic plaques that closely resemble advanced atherosclerotic lesions found in humans.
as §1, with “The samples were prepared as described in Example 11.” left out
The experimental conditions were the same, except that the two remaining swine in each group were transferred to the unsupplemented control diet following the 42 day feeding period. After an additional 70 days, serum and plasma samples were collected from these swine after a 12 hour fast for testing.

[2] = 70 days on control diet after 42 days at 50 ppm

## CC(C)=CCC/C(C)=C/CC/C(C)=C/CCC1CCc2cc(O)ccc2O1 (stereo not drawn) [P25, 3,4-dihydro-2-(4,8,12-trimethyltrideca-3'(E),7'(E),11'-trienyl)-2H-1-benzopyran-6-ol]
HMG-CoA reductase; 21 days
  HMG-CoA REDUCTASE: 307.27 pg/min/mg of microsomes
  HMG-CoA REDUCTASE, percentage of 0-time value: 87.58%
HMG-CoA reductase; 42 days
  HMG-CoA REDUCTASE: 269.43 pg/min/mg of microsomes
  HMG-CoA REDUCTASE, Percentage of Control Activity: 69.75%
  HMG-CoA REDUCTASE, percentage of 0-time value: 76.79%
[1]; [2]
  HDL-CHOLESTEROL CONCENTRATION IN SERUM: 32.65 mg/100 ml
  HDL-CHOLESTEROL, Percentage of Control Activity: 114.29%
  HDL-CHOLESTEROL, percentage of baseline value: 149.36%
  HDL:LDL CHOLESTEROL, Percentage of Control Activity: 82.06%
  LDL-CHOLESTEROL CONCENTRATION IN SERUM: 233.75 mg/100 ml
  LDL-CHOLESTEROL, Percentage of Control Activity: 90.17%
  LDL-CHOLESTEROL, percentage of baseline value: 128.17%
  TOTAL CHOLESTEROL CONCENTRATION IN SERUM: 268.90 mg/100 ml
  TOTAL CHOLESTEROL, Percentage of Control Activity: 75.60%
  TOTAL CHOLESTEROL, percentage of baseline value: 124.45%
[1]; control diet + 50 ppm, 6 weeks
  Apo A1, percentage of control: 104.05%
  Apo A1 concentration in serum: 26.73 ± 1.22 mg/100 ml
  Apo B concentration in serum: 106.63 ± 1.72 mg/100 ml
  Apo B, percentage of control: 72.16%
  Triglycerides concentration in serum: 62.00 ± 1.19 mg/100 ml
  Triglycerides, percentage of control: 80.98%
[1]; control diet + 50 ppm, 21 days
  HDL-CHOLESTEROL CONCENTRATION IN SERUM: 25.68 mg/100 ml
  HDL-CHOLESTEROL, percentage of baseline value: 117.47%
  HDL:LDL CHOLESTEROL, percentage of baseline value: 89.20%
  LDL-CHOLESTEROL CONCENTRATION IN SERUM: 191.05 mg/100 ml
  LDL-CHOLESTEROL, percentage of baseline value: 104.76%
  TOTAL CHOLESTEROL CONCENTRATION IN SERUM: 229.90 mg/100 ml
  TOTAL CHOLESTEROL, percentage of baseline value: 106.33%
[1]; control diet + 50 ppm, 42 days
  Glucagon: 274.41 pg/mL
  Glucagon, percentage of control: 83.05%
  Glucose: 71.89 mg/100 ml
  Glucose, percentage of control: 74.89%
  HDL-CHOLESTEROL CONCENTRATION IN SERUM: 31.81 mg/100 ml
  HDL-CHOLESTEROL, Percentage of Control Activity: 123.75%
  HDL-CHOLESTEROL, percentage of baseline value: 145.52%
  HDL:LDL CHOLESTEROL, Percentage of Control Activity: 55.59%
  HDL:LDL CHOLESTEROL, percentage of baseline value: 74.58%
  Insulin: 20.9 µU/mL
  Insulin, percentage of control: 101.90%
  LDL-CHOLESTEROL CONCENTRATION IN SERUM: 198.01 mg/100 ml
  LDL-CHOLESTEROL, Percentage of Control Activity: 65.51%
  LDL-CHOLESTEROL, percentage of baseline value: 107.48%
  TOTAL CHOLESTEROL CONCENTRATION IN SERUM: 237.64 mg/100 ml
  TOTAL CHOLESTEROL, Percentage of Control Activity: 68.60%
  TOTAL CHOLESTEROL, percentage of baseline value: 107.60%

From US6239171A, “Tocotrienols and tocotrienol-like compounds and methods for their use” (Lipogenics, Inc., priority 1998, dated 2001)
